Measured values as given in PMC3961306, “Comparison of the Cancer Gene Targeting and Biochemical Selectivities of All Targeted Kinase Inhibitors Approved for Clinical Use” (PLoS ONE, 2014).

Key:
Experiment in all cases: Kinase profiling in a biochemical assay panel (mobility shift assays and ELISA), %-inhibition at 1 μM; selectivity entropy
[1] = biological target: T1, panel of more than 300 wild-type and mutant kinases (313 kinase panel) (Homo sapiens, UniProt O14733)
T1 sequence (O14733 1-419): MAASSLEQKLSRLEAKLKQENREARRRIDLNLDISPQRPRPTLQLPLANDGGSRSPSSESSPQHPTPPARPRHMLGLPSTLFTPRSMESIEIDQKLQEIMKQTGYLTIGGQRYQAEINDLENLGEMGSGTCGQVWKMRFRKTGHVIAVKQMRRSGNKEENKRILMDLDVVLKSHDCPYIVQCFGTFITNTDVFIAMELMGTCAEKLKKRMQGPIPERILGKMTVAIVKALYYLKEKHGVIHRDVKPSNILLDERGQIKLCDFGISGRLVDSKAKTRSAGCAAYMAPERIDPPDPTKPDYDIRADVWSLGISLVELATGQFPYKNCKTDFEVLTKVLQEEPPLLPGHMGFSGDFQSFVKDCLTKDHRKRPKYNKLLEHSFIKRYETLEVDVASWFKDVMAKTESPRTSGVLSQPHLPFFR

[2] = biological target: panel of more than 300 wild-type and mutant kinases (313 kinase panel) (Homo sapiens, UniProt P06213)
[3] = biological target: panel of more than 300 wild-type and mutant kinases (313 kinase panel) (Homo sapiens, UniProt P06239)
[4] = biological target: panel of more than 300 wild-type and mutant kinases (313 kinase panel) (Homo sapiens, UniProt P22455, V550E); settings: kinase FGFR4(V550E); compound at 1 μM
[5] = biological target: T2, panel of more than 300 wild-type and mutant kinases (313 kinase panel) (Homo sapiens, UniProt P45985)
T2 sequence (P45985 1-399): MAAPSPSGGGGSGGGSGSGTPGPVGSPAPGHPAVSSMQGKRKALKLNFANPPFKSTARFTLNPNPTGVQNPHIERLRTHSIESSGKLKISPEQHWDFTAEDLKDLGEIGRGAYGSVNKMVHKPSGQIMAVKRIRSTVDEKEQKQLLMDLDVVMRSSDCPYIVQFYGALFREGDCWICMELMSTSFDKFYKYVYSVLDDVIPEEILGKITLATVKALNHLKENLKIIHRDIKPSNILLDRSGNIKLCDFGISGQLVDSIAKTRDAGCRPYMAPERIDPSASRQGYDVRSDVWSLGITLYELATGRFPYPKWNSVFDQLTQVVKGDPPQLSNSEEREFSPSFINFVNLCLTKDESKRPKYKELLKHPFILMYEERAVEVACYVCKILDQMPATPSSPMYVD

[6] = biological target: panel of more than 300 wild-type and mutant kinases (313 kinase panel) (Homo sapiens, UniProt Q13554)
[7] = biological target: panel of more than 300 wild-type and mutant kinases (313 kinase panel) (Homo sapiens, UniProt Q16644)
[8] = biological target: T3, panel of more than 300 wild-type and mutant kinases (313 kinase panel) (Homo sapiens, UniProt Q9UHD2)
T3 sequence (Q9UHD2 1-729): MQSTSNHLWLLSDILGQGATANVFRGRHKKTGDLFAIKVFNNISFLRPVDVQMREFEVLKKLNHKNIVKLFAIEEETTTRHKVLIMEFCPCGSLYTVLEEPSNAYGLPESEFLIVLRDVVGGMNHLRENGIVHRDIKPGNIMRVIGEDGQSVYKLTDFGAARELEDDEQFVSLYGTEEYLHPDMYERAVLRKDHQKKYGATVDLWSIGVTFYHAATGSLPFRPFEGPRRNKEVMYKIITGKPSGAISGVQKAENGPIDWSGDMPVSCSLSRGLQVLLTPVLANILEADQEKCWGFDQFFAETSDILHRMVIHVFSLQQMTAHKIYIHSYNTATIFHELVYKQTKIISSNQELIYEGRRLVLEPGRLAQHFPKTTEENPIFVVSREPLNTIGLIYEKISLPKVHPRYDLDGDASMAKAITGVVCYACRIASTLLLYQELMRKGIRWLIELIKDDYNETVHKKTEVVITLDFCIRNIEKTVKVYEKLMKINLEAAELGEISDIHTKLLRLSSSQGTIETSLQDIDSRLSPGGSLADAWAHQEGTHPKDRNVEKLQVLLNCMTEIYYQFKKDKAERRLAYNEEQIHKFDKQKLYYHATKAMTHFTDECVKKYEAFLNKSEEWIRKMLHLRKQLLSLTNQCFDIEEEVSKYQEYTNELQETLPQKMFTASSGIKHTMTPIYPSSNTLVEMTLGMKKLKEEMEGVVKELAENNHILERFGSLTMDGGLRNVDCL

[9] = biological target: panel of more than 300 wild-type and mutant kinases (313 kinase panel) (Homo sapiens, UniProt P36507)
[10] = biological target: panel of more than 300 wild-type and mutant kinases (313 kinase panel) (Homo sapiens, UniProt P78368)
[11] = biological target: panel of more than 300 wild-type and mutant kinases (313 kinase panel) (Homo sapiens, UniProt Q9HBH9)
[12] = kinase MAP2K7, compound at 1 μM
[13] = kinase MAP2K4, compound at 1 μM
[14] = kinase MAPKAPK3, compound at 1 μM
[15] = kinase MAP2K2, compound at 1 μM

Sequence of panel of more than 300 wild-type and mutant kinases (313 kinase panel) (Homo sapiens, UniProt P22455, V550E) (P22455 22-802 V550E): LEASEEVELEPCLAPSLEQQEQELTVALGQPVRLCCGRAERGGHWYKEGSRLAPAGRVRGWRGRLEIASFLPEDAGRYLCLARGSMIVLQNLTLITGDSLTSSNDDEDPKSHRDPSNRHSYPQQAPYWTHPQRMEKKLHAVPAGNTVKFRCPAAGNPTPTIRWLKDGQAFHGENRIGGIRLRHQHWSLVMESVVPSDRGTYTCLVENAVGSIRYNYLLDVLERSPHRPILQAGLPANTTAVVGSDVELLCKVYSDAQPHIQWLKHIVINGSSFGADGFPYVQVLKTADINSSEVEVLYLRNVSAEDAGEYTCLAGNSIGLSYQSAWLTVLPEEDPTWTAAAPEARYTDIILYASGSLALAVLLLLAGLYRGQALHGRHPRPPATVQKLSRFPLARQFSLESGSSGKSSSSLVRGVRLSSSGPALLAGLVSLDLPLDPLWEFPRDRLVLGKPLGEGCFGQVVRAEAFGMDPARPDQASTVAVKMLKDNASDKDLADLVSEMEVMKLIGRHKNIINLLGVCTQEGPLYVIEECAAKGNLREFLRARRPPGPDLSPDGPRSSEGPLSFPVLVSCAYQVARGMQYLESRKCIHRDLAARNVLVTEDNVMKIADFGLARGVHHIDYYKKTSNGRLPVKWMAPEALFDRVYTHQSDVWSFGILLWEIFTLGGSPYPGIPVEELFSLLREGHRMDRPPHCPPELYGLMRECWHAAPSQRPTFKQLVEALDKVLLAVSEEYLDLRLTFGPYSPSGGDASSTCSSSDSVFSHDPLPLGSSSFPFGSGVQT
Sequence of panel of more than 300 wild-type and mutant kinases (313 kinase panel) (Homo sapiens, UniProt Q16644) (Q16644 whole entry, change not shown): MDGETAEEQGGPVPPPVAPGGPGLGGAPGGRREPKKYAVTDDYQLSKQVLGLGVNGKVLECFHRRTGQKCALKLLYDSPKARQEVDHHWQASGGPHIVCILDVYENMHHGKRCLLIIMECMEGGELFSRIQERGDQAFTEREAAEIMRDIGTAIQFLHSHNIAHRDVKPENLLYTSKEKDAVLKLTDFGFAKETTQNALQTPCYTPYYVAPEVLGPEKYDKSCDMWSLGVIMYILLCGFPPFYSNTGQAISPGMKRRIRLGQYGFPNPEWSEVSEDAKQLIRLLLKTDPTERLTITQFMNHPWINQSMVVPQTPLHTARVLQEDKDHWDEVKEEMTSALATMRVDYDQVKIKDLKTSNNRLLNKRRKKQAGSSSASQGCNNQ
Sequence of panel of more than 300 wild-type and mutant kinases (313 kinase panel) (Homo sapiens, UniProt P06239) (P06239 whole entry, stated change not applied): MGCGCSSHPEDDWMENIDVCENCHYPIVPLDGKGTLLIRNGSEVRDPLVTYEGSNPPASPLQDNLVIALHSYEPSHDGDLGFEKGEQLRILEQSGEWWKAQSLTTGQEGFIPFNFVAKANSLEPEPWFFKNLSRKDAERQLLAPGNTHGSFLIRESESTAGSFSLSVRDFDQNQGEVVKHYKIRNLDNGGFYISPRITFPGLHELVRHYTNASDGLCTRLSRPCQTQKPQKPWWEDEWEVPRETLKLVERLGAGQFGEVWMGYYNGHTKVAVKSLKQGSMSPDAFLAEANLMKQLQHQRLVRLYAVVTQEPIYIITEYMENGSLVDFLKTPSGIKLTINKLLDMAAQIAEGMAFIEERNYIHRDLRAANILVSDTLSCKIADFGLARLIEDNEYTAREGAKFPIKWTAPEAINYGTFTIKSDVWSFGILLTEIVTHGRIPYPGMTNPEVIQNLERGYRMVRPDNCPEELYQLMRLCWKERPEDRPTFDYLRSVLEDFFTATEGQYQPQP
Sequence of panel of more than 300 wild-type and mutant kinases (313 kinase panel) (Homo sapiens, UniProt P06213) (P06213 28-1382, change not shown): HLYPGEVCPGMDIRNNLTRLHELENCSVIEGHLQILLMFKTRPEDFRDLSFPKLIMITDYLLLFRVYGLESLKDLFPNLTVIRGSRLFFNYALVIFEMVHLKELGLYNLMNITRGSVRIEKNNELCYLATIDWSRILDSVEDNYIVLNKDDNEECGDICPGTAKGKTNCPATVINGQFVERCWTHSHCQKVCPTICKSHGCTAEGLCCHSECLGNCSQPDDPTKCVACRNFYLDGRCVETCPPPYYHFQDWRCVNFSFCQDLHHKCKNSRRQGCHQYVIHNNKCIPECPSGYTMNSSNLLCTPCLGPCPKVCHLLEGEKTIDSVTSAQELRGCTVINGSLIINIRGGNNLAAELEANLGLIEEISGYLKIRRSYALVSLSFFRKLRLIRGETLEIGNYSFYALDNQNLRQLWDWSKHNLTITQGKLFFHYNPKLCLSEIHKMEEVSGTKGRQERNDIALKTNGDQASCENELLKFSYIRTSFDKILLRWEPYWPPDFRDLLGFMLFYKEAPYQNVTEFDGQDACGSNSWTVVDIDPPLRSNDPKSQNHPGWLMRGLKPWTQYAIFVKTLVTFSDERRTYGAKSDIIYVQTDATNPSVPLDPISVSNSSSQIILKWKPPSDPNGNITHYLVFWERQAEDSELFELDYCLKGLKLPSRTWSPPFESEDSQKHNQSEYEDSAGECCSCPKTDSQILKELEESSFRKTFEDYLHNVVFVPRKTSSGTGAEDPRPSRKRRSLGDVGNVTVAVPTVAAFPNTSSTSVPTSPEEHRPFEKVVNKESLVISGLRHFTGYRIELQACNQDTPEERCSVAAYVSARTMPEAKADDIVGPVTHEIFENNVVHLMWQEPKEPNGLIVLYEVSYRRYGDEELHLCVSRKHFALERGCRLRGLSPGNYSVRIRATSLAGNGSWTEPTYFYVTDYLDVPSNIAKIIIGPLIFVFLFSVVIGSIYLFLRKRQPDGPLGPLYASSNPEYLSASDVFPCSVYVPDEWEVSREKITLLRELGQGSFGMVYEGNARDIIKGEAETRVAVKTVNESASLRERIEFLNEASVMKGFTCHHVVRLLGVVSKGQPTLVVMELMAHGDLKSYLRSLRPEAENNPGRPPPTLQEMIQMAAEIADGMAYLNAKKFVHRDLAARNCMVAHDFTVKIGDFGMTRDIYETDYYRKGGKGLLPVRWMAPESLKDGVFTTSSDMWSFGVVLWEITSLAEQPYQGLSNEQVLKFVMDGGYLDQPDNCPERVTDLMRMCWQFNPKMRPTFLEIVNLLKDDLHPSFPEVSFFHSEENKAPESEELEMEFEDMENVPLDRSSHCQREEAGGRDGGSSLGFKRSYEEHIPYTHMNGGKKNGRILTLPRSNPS
Sequence of panel of more than 300 wild-type and mutant kinases (313 kinase panel) (Homo sapiens, UniProt Q13554) (Q13554 whole entry, change not shown): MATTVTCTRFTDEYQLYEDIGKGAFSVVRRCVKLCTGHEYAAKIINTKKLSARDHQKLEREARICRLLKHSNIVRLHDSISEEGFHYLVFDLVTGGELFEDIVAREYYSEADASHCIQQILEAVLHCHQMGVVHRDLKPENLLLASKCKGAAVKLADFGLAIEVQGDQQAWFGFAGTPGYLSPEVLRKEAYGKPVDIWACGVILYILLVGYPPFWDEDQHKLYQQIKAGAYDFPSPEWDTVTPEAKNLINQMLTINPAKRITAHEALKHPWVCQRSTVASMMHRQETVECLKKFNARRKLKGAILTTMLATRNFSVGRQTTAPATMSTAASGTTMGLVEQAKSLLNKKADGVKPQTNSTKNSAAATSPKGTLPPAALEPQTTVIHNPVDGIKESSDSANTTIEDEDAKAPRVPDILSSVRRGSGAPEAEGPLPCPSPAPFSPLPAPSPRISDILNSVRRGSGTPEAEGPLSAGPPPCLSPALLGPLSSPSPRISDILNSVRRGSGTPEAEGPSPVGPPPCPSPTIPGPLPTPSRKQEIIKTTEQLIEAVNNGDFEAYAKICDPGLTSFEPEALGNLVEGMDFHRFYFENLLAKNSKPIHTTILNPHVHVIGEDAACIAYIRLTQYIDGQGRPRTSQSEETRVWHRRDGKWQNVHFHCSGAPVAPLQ

Structure (SMILES) | %-inhibition of MAP2K7 [1, 12] | %-inhibition of INSR ([2]; kinase INSR, compound at 1 μM) | %-inhibition of LCK ([3]; kinase LCK, compound at 1 μM) | %-inhibition of FGFR4(V550E) [4] | %-inhibition of MAP2K4 [5, 13] | %-inhibition, CaMK2β ([6]; kinase CaMK2β, 1 μM compound) | %-inhibition of MAPKAPK3 [7, 14] | %-inhibition of TBK1 ([8]; kinase TBK1, 1 μM) | %-inhibition of MAP2K2 [9, 15] | %-inhibition, CK1γ2 ([10]; kinase CK1γ2, 1 μM compound) | %-inhibition of MNK2 ([11]; kinase MNK2, 1 μM) | also measured
CC(C)(C)c1nc(-c2cccc(NS(=O)(=O)c3c(F)cccc3F)c2F)c(-c2ccnc(N)n2)s1 [dabrafenib] | -4.55% | 7.51% | 83% | -5% | -3% | -0.277% | -11% | -1.15% |  |  |  | 
CCCS(=O)(=O)Nc1ccc(F)c(C(=O)c2c[nH]c3ncc(-c4ccc(Cl)cc4)cc23)c1F [vemurafenib] | 1.65% | 17% | 81% | 1.79% |  | -6.64% | 12% | -0.81% | 30% | 0.506% | 27% | 
Cc1nc(Nc2ncc(C(=O)Nc3c(C)cccc3Cl)s2)cc(N2CCN(CCO)CC2)n1 [dasatinib] | -7% |  |  |  | -3.71% | -6% |  |  |  | 20% |  | 
C[C@@H](Oc1cc(-c2cnn(C3CCNCC3)c2)cnc1N)c1c(Cl)ccc(F)c1Cl [crizotinib] | 4.36% |  |  | -0.358% | -1.24% |  | -13% | 1.42% | 13% |  | 2% | 
Cc1ccc(C(=O)Nc2ccc(CN3CCN(C)CC3)c(C(F)(F)F)c2)cc1C#Cc1cnc2cccnn12 [ponatinib] |  | 43% | 103% | -1.79% |  |  |  |  |  | 0.169% | 97% | 
O=S(=O)(c1cccc2cnccc12)N1CCCNCC1 [fasudil] | -3.26% | -11% | -7.52% | -2.85% | -5% | 2.58% | -14% | -5% | 13% | 18% | 12% | 
COc1cc(Nc2c(C#N)cnc3cc(OCCCN4CCN(C)CC4)c(OC)cc23)c(Cl)cc1Cl [bosutinib] |  | 65% |  | -3.46% |  |  | -12% | 32% |  | -2.3% | -2% | %-inhibition of MAP2K2 ([9]; 1 µM): 96%
Cc1ccc(Nc2nccc(N(C)c3ccc4c(C)n(C)nc4c3)n2)cc1S(N)(=O)=O [pazopanib] | 10% | 22% | 73% |  |  | -2.29% | -6% | -2.68% | 1.87% | -0.747% | 2.27% | 
CC(=O)Nc1cccc(-n2c(=O)n(C3CC3)c(=O)c3c(Nc4ccc(I)cc4F)n(C)c(=O)c(C)c32)c1 [trametinib] | -2.32% | -30% | -7% | -3.28% | 2.18% | 0.738% | -9% | -4.47% |  | -2.15% | -11% | 
CCN(CC)CCNC(=O)c1c(C)[nH]c(/C=C2\C(=O)Nc3ccc(F)cc32)c1C [sunitinib] |  |  |  |  |  |  |  | 56% |  |  |  | 
CS(=O)(=O)CCNCc1ccc(-c2ccc3ncnc(Nc4ccc(OCc5cccc(F)c5)c(Cl)c4)c3c2)o1 [lapatinib] | -4% | -1.26% | 12% |  | 0.409% |  | -3.64% | -14% | 6% | -1.22% | 2.43% | %-inhibition, CaMK2β ([6]; 1 µM): -5%
COc1cc2c(Nc3ccc(Br)cc3F)ncnc2cc1OCC1CCN(C)CC1 [vandetanib] | 5.36% | 3.63% |  | -0.358% | -2.77% | -4.23% | -2% | 0.911% |  | -2% |  | 
Cc1cn(-c2cc(NC(=O)c3ccc(C)c(Nc4nccc(-c5cccnc5)n4)c3)cc(C(F)(F)F)c2)cn1 [nilotinib] | -24% | -8% |  |  | -4.54% |  | 2% |  | -12% | 5.57% | 2% | %-inhibition of LCK ([3]; 1 µM): 90%; %-inhibition, CaMK2β ([6]; 1 µM): -21%; %-inhibition of TBK1 ([8]; 1 µM): 6%
C#Cc1cccc(Nc2ncnc3cc(OCCOC)c(OCCOC)cc23)c1 [erlotinib] |  |  |  |  |  |  |  |  |  |  |  | %-inhibition of MAP2K7 ([1]; 1 µM): -5%; %-inhibition of INSR ([2]; 1 µM): 4%; %-inhibition of MAP2K2 ([9]; 1 µM): 8%; %-inhibition of MAP2K4 ([5]; 1 µM): -6%; %-inhibition, CK1γ2 ([10]; 1 µM): 8%; %-inhibition, CaMK2β ([6]; 1 µM): -6%; %-inhibition of MAPKAPK3 ([7]; 1 µM): 0.621%; %-inhibition of MNK2 ([11]; 1 µM): 35%; %-inhibition of TBK1 ([8]; 1 µM): 26%
